Assay results from paper PMC10060354, “Discovery of a small molecule ligand of FRS2 that inhibits invasion and tumor growth” (Cellular Oncology, 2022).
Read-outs that look alike come from different tables or passages of the source.

How the values were obtained:
DAOY cells = experiment: Spheroid invasion assay (SIA), bFGF-induced collagen I invasion; type: cell-based, human; conditions: for EC50: DAOY cells, n = 3 technical replicas, read-out: EC50 for the inhibition of bFGF-induced collagen I invasion
Method: 1000—2500 cells/well in 100 μl were seeded in 96 well Corning® Spheroid microplate (CLS4520, Sigma-Aldrich) or in cell-repellent 96 well microplate (650,790, Greiner Bio-one). SIA and analysis was performed as described before. In brief: After spheroid formation (24 – 72 h after seeding), 70 µl medium was removed and replaced with the collagen mixture (2.5 mg/ml Pure Col Collagen I (Advanced Biomatrix)), DMEM 1x (from 10 × stock, Sigma, D2429) and 0.4% Sodium bicarbonate (Sigma, S8761)), resulting in a final collagen concentration of 1.75 mg/ml. Embedded spheroids were stimulated with bFGF (100 ng/ml if not otherwise stated), HGF (30 ng /ml) or EGF (20 ng/ml) and distance of invaded cells quantified 24 – 48 h after embedding. Compounds and BGJ398 were added in Dimethylsulfoxid (DMSO) and corresponding DMSO concentrations were used in control samples.

DMS114 = experiment: Boyden chamber transwell migration assay; type: cell-based, human; conditions: 24 h
Method: Transwells with 5 μm pore size (83.3932.500; Sarstedt) were coated with 50 µl of 0.06 μg/μl Pure Col Collagen I (5005; Advanced BioMatrix) dissolved in 100% EtOH for a final concentration of 10 μg/cm^2. 10,000 – 15,000 cells were resuspended in serum-free medium or serum-free medium containing the appropriate treatment and seeded in the upper chamber of a 24 well plate containing the coated transwell. The lower chamber was filled with either serum-free medium or serum-free medium with bFGF (25 ng/ml). Transwell migration was allowed for 24 h (DMS114) or 48 h (HCT116) at 37 °C, 5% CO2. Inserts were washed twice with PBS and the remaining non-invading cells on the upper surface of the membrane were removed using a cotton swab. The cells were fixed in 4% paraformaldehyde (28908; Thermo Fisher Scientific) in PBS for 5 min at RT. Fixed cells were washed twice with PBS and stained with DAPI for 15 min at RT. Inserts were washed three times in PBS before images of DAPI-stained nuclei were acquired using a widefield Nikon Ti2 microscope at 40 × magnification. Nuclei were counted on the membrane areas using ImageJ software and plotted on Prism 9 software (GraphPad).

human cancer cell lines = experiment: CellTiter-Glo viability (2D culture or 3D spheroids), cell line panel; type: cell-based; conditions: SW780, RT-112, M059K and SKOV3 cells; 2.7 to 20 µM; 48 h
Method: Cell viability was determined using CellTiter-Glo® 2D or 3D cell viability assays (#G9242, #G9682, Promega). 500 cells/25 µl were seeded in flat bottom (#781,091, Greiner bio-one) or U-low adhesion (#4516, Corning) 384-well plate, 24 h prior to treatment. Increasing concentrations of compounds are deposited on cells using a HP Digital Drug Dispenser with DMSO total volume normalization. After 48 h, the CellTiter-Glo® 2D or 3D reagent was added (volume/volume) following manufacturer’s instructions. Plates were incubated at RT (room temperature) under agitation for 30 min and luminescence representing the number of viable cells was quantified with a Cytation 3 imaging reader (BioTek®). Experiments were performed independently three times with three technical replicas each.

[1] = system: FRS2 (Y436) phosphorylation; experiment: Immunoblotting, FRS2 phosphorylation; type: cell-based, human; conditions: RT-112 cells
Method: (§1) Cells were serum starved o.n. and 10 µM compound or 1 µM (BGJ398) were added 3 h before stimulation with 100 ng/ml bFGF for 15 min. Cells were lysed in RIPA buffer containing protease inhibitor cocktail and lysates resolved by SDS-PAGE. Membranes were probed with primary antibodies against phospho-FRS2, FRS2, phospho-ERK1/2, ERK1/2, pAKT, AKT and tubulin. Integrated density of immuno-reactive bands was quantified using Adobe Photoshop CS3. Integrated densities of phospho bands relative to non-phospho bands of same protein were calculated and plotted as fold-change relative to untreated control conditions. Compounds and BGJ398 were added in DMSO and corresponding DMSO concentrations were used in control samples.

ERK (pT202/Y204) = experiment: Immunoblotting, ERK phosphorylation; type: cell-based, human; conditions: DAOY, SW780, M059K, SKOV3, AGS, DMS114 and RT-112 cells; 10 µM compound or 1 µM BGJ398
Method: as §1

pFRS2Y436 = experiment: IHC of pFRS2Y436 in SKOV3 flank tumor samples; type: in vivo, mice; conditions: SKOV3 model; end of treatment
Method: IHC of tumor sections was performed by Sophistolab (Muttenz, Switzerland) on a Lecia BondMax instrument using Refine HRP-Kits (Leica DS9800). All buffer-solutions were purchased from Lecia Microsystems Newcastle, Ltd and used according to the manufacturer’s guidelines. Paraffin-slides were de-waxed, pre-treated and incubated as follows: ER-solution 2 for 10 min at 95 °C, ER-solution 2 for 20 min at 100 °C and ER-solution 2 for 30 min at 100 °C. pFRS2; Rabbit anti-Phospho FRS2 (PhosphoY 436, Abcam Limited; ab193363), dilution 1:150; phospho-p44/42 MAPK (Erk1/2Thr202/Tyr204) Rabbit mAb (Cell Signaling Technology #4370), dilution 1:1600. The IHC images were captured digitally using a Nikon Epifluorescence Eclipse Ti2 equipped with a Nikon DS-Ri2 color and a Nikon DS-Qi2 monochrome camera.

[2] = Semi-thermodynamic solubility; type: physicochemical; conditions: for solubility: Room Temp, Overnight, LC-MSMS
Method: In vitro ADME-T assays were performed by Cyprotex (Cyprotex Discovery, Cheshire, UK). […] The solution was agitated at ambient temperature overnight. The solutions were then centrifuged for 30 min at 3000 rpm at RT. The supernatant was removed and centrifuged for a further 30 min under the same conditions. An aliquot of the resulting supernatant was diluted in 50% methanol in water (containing an internal standard for MS analysis) prior to analysis by LC–MS/MS. […] These stocks were diluted in 50% methanol in water (containing an internal standard for MS analysis) prior to analysis by LC–MS/MS. The solubility of the shortlisted hits was calculated from a linear or quadratic fit of the standard curve.

[3] = Microsomal metabolic stability; type: in vitro ADME; conditions: human, pooled liver microsomes
Method: Pooled liver microsomes were purchased from Xenotech (H0500) and were stored according to manufacturer’s instructions prior to use. […] A minus co-factor control incubation was included for each compound tested where 0.1 M phosphate buffer pH 7.4 was added instead of NADPH. Two control compounds were included with each species. All incubations were performed singularly for each shortlisted hit. Each compound was incubated for 0, 5, 15, 30 and 45 min. The minus co-factor was incubated for 45 min only. The reactions were stopped by transferring incubate into acetonitrile at the appropriate time points in a 1:3 ratio. The termination plates were centrifuged at 3000 rpm for 20 min at 4 °C to precipitate the protein. Following protein precipitation, the supernatant were combined in cassette of up to 4 compounds, internal standard for MS analysis was added and samples were analyzed using LC–MS/MS. From a plot of In peak area ratio (compound peak area/internal standard peak area) against time, the gradient of the lines were determined. Subsequently, half-life and intrinsic clearance were calculated using the following equations. Eliminationrateconstant(k)=(-gradient)Half-life(t1/2)(min)=0.693/kIntrinsicclearance(CLint)(μl/min/mgprotein)=Vx0.693/t1/2 where V = Incubation volume (µl) / Microsomal protein (mg)

[4] = CaCo-2 permeability (bi-directional); conditions: human
Method: (§2) Caco-2 cells obtained from the ATCC were used between passage numbers 40—60. Cells were seeded onto Millipore Multiscreen Transwell plates at 1 × 10^5 cells/cm^2. The cells were cultured in DMEM and media was changed every two or three days. On day 20, the permeability study was performed. […] Cells were then incubated with HBSS at the desired pH in both apical and basolateral compartments for 40 min to stabilize physiological parameters.
(§3) The fluorescent integrity marker lucifer yellow was also included in the dosing solution. Analytical standards were prepared from test compound DMSO dilutions and transferred to buffer, maintaining a 1% v/v DMSO concentration.
(§4) For assessment of A-B permeability, HBSS was removed from the apical compartment and replaced with test compound dosing solution. The apical compartment insert was then placed into a companion plate containing fresh buffer (containing 1% v/v DMSO). For assessment of B-A permeability, HBSS was removed from the companion plate and replaced with test compound dosing solution. Fresh buffer (containing 1% v/v DMSO) was added to the apical compartment insert, which was then placed into the companion plate.
(§5) Compound permeability was assessed in duplicate. Compounds of known permeability characteristics were run as controls on each assay plate.
(§6) Test and control compounds were quantified by LC–MS/MS cassette analysis using a 7-point calibration with appropriate dilution of the samples. The starting concentration (C0) was determined from the dosing solution and the experimental recovery calculated from C0 and both apical and basolateral compartment concentrations. The integrity of the monolayer throughout the experiment was checked by monitoring lucifer yellow permeation using fluorimetric analysis.
(§7) The permeability coefficient (Papp) for each compound was calculated from the following equation: Papp=dQ/dtC0×A where dQ/dt was the rate of permeation of the drug across the cells, C0 was the donor compartment concentration at time zero and A was the area of the cell monolayer. C0 was obtained from analysis of the dosing solution.
(§8) Efflux ratio (ER) was calculated from mean A-B and B-A data. This was derived from: ER=Papp(B-A)Papp(A-B)

Caco-2 cells = experiment: CaCo-2 permeability (bi-directional); conditions: Direction A2B
Method: as §2, §3, §4, §5, §6, §7, §8

[5] = Cell viability (cytotoxicity, MTT) using HepG2; type: cell-based, human; conditions: human, HepG2 cells, 72 h, summary sheet, read-out: MTT (AC50) Conc at which 50% of maximum efficacy is reached
Method: (§9) HepG2 human hepatocellular carcinoma cells were plated on 96-well tissue culture polystyrene plates for 24 h prior to dosing of the cells. The shortlisted hits were diluted in DMSO and serial dilutions are made 1% DMSO in growth media. Compounds at 8 concentrations in triplicate was then incubated for 72 h. Appropriate blanks and controls were run alongside the assay. One h prior to the end of the incubation period, the cells were loaded with MTT [yellow; 3-(4,5-dimethyl-2-thiazolyl)-2,5-diphenyl-2H-tetrazolium bromide], the plates were dried and re-solubilized using DMSO. The plates were then scanned at 570 nm using a plate reader.
(§10) The minimum effective concentration was determined from the lowest concentration whose mean value exceeds the significance level, provided either a clear dose–response relationship was observed, or at least two consecutive concentration points were above the significance level.

[6] = system: HepG2 human hepatocellular carcinoma cells; experiment: Cell viability (cytotoxicity, MTT) using HepG2; type: cell-based
Method: as §9, §10

## CCN1CCN(c2ccc(Nc3cc(N(C)C(=O)Nc4c(Cl)c(OC)cc(OC)c4Cl)ncn3)cc2)CC1 [BGJ398, 3-(2,6-Dichloro-3,5-dimethoxy-phenyl)-1-{6-[4-(4-ethyl-piperazin-1-yl)-phenylamino]-pyrimidin-4-yl}-1-methyl-urea, reference compound]
DAOY cells
  EC50: 470 nM
DAOY cells; Homo sapiens, Daoy
  EC50: 468 nM
DMS114
  concentration at which significant reduction of transwell migration was observed: 1 µM
Human cancer cell lines
  viability (result in words): reduced viability
[1]
  basal and bFGF-induced phosphorylation of FRS2Y436 (result in words): reduced basal and bFGF-induced phosphorylation
ERK (pT202/Y204)
  basal and bFGF-induced phosphorylation of ERK (result in words): inhibited basal and bFGF-induced phosphorylation
pFRS2Y436
  pFRS2 Y436 in tumor tissues by IHC (result in words): No clear difference in pFRS2 Y436

## Oc1cc(Cl)cc2c1NC(c1ccc(Cl)cc1)C1CC=CC21 (centres unmarked) [Compound 12]
DAOY cells; DAOY, bFGF-induced, 1, 5 and 10 µM
  functional activity in SIA (result in words): reduced invasion comparable to the parent compound 7
[2]; PBS, aqueous buffer, thermodynamic from solid, read-out: Mean Solubility
  solubility: < 1 µM
[2]; PBS, aqueous buffer, thermodynamic from solid, read-out: Solubility Replicate 1
  solubility: < 1 µM
[2]; PBS, aqueous buffer, thermodynamic from solid, read-out: Solubility Replicate 3
  solubility: < 1 µM
[2]; PBS, aqueous buffer, thermodynamic from solid, read-out: Solubility Replicate 4
  solubility: < 1 µM
[2]; aqueous buffer, thermodynamic from solid, PBS, overnight, summary sheet
  solubility thermodynamic: < 1 µM
[2]; summary sheet
  Solubility (class in words): Very slightly
[3]; pH 7.4, liver microsomes, read-out: t1/2
  half-life at 1 µM: 2.5 min
[3]; pH 7.4, read-out: Metabolic stability - Intrinsic clearance (CI)
  microsomal CLint at 1 µM: 555 µL/min/mg
[4]; Caco-2, Mean Papp B-A, Caco-2, summary sheet
  Papp B→A at 120 min, 10 μM: 7.53 ×10⁻⁶ cm/s
[4]; Caco-2, pH 7.4, Mean % Recovery A2B, HBSS/HBSS, pH 7.4/7.4
  recovery at 120 min, 10 µM: 51.5%
[4]; Caco-2, pH 7.4, Mean % Recovery B2A, HBSS/HBSS, pH 7.4/7.4
  recovery at 120 min, 10 µM: 14.4%
[4]; Caco-2, pH 7.4, Mean Papp B2A, HBSS/HBSS, pH 7.4/7.4
  Papp B→A at 120 min, 10 μM: 7.53 ×10⁻⁶ cm/s
[4]; Caco-2, pH 7.4, Papp B2A Replicate 1, HBSS/HBSS, pH 7.4/7.4
  Papp B→A at 120 min, 10 μM: 6.28 ×10⁻⁶ cm/s
[4]; Caco-2, pH 7.4, Papp B2A Replicate 2, HBSS/HBSS, pH 7.4/7.4
  Papp B→A at 120 min, 10 μM: 8.78 ×10⁻⁶ cm/s
Caco-2 cells
  Comments: A2B permeation (result in words): Test compound not detectable in receiver compartments A2B. High C0 value A2B and B2A. Recovery low B2A. Possible solubility or binding issues. Accuracy of result questionable.
[5]
  AC50 at 72 h: 17500 nM
[6]; 72h, 3 replicas, NR = No response (Summary sheet)
  MEC: 9.85 µM
[6]; 72 h, summary sheet
  MTT (MEC) Minimum effective concentration: 9.85 µM
